Reference: ChEMBL document CHEMBL1201862, “PubChem BioAssay data set” (2004)
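Step 1: Grow cells in 96-well plates. Step 2: Expose to compound for 48 hours at 5 concentrations. Step 3: Interpolate endpoints linearly; if unreached, use highest concentration. GI50 marks 50% less growth.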 Active and inactive are the calls of the source. Rule as the data show it: active = GI50 up to about 1.1 µM and inactive = higher.

Assays:
Test in all cases: NCI tumour cell line growth inhibition, 48 h
DMS-273 = test system: DMS-273
UO-31 = test system: UO-31
SNB-75 = test system: SNB-75
NCI-H23 = test system: NCI-H23
OVCAR-4 = test system: OVCAR-4
CAKI-1 = test system: CAKI-1
SF-295 = test system: SF-295
MOLT-4 = test system: MOLT-4
IGROV-1 = test system: IGROV-1
SR = test system: SR
SK-OV-3 = test system: SK-OV-3
RXF 393 = test system: RXF 393
786-0 = test system: 786-0
HT-29 = test system: HT-29
CCRF-CEM = test system: CCRF-CEM
OVCAR-8 = test system: OVCAR-8
NCI-H226 = test system: NCI-H226
SK-MEL-5 = test system: SK-MEL-5
M14 = test system: M14
LOX IMVI = test system: LOX IMVI
SK-MEL-28 = test system: SK-MEL-28
HOP-18 = test system: HOP-18
HOP-92 = test system: HOP-92
UACC-257 = test system: UACC-257
NCI-H460 = test system: NCI-H460
KM12 = test system: KM12
DMS-114 = test system: DMS-114
SNB-19 = test system: SNB-19
RPMI-8226 = test system: RPMI-8226
OVCAR-5 = test system: OVCAR-5
K562 = test system: K562
M19-MEL = test system: M19-MEL
HL-60 = test system: HL-60
EKVX = test system: EKVX
SF-268 = test system: SF-268
HOP-62 = test system: HOP-62
U-251 = test system: U-251
LXFL 529 = test system: LXFL 529
SNB-78 = test system: SNB-78
SK-MEL-2 = test system: SK-MEL-2
UACC-62 = test system: UACC-62
A498 = test system: A498
SN12C = test system: SN12C
KM-20L2 = test system: KM-20L2
SF-539 = test system: SF-539
HCC 2998 = test system: HCC 2998
HCT-15 = test system: HCT-15
NCI-H522 = test system: NCI-H522
HCT-116 = test system: HCT-116
A549 = test system: A549
ACHN = test system: ACHN
RXF 631 = test system: RXF 631
DLD-1 = test system: DLD-1
XF498 = test system: XF498
TK-10 = test system: TK-10
SW-620 = test system: SW-620
Malme-3M = test system: Malme-3M

## CN(C)C1=NC2=S(SC(Nc3ccccc3)=N2)S1 (configuration not stated)
DMS-273
  GI50: 14.8 µM (inactive)
UO-31
  GI50: 24 µM (inactive)
SNB-75
  GI50: 28.7 µM (inactive)
NCI-H23
  GI50: 28.2 µM (inactive)
OVCAR-4
  GI50: 19 µM (inactive)
CAKI-1
  GI50: 26.5 µM (inactive)
SF-295
  GI50: 24.5 µM (inactive)
MOLT-4
  GI50: 10.3 µM (inactive)
IGROV-1
  GI50: 15.7 µM (inactive)
SR
  GI50: 17.1 µM (inactive)
SK-OV-3
  GI50: 46.9 µM (inactive)
RXF 393
  GI50: 32 µM (inactive)
786-0
  GI50: 28.8 µM (inactive)
HT-29
  GI50: 33.6 µM (inactive)
CCRF-CEM
  GI50: 15.5 µM (inactive)
OVCAR-8
  GI50: 26.6 µM (inactive)
NCI-H226
  GI50: 22.2 µM (inactive)
SK-MEL-5
  GI50: 5.87 µM (inactive)
M14
  GI50: 58.1 µM (inactive)
LOX IMVI
  GI50: 22.7 µM (inactive)
SK-MEL-28
  GI50: 17.2 µM (inactive)
HOP-18
  GI50: 25 µM (inactive)
HOP-92
  GI50: 22.7 µM (inactive)
UACC-257
  GI50: 7.8 µM (inactive)
NCI-H460
  GI50: 36.1 µM (inactive)
KM12
  GI50: 26.4 µM (inactive)
DMS-114
  GI50: 3.47 µM (inactive)
SNB-19
  GI50: 26.3 µM (inactive)
RPMI-8226
  GI50: 9.33 µM (inactive)
OVCAR-5
  GI50: 34.8 µM (inactive)
K562
  GI50: 6.62 µM (inactive)
M19-MEL
  GI50: 30 µM (inactive)
HL-60
  GI50: 10 µM (inactive)
EKVX
  GI50: 12.9 µM (inactive)
SF-268
  GI50: 34.5 µM (inactive)
HOP-62
  GI50: 24.2 µM (inactive)
U-251
  GI50: 19.4 µM (inactive)
LXFL 529
  GI50: 10 µM (inactive)
SNB-78
  GI50: 34.4 µM (inactive)
SK-MEL-2
  GI50: 7.62 µM (inactive)
UACC-62
  GI50: 21.2 µM (inactive)
A498
  GI50: 14.6 µM (inactive)
SN12C
  GI50: 31.3 µM (inactive)
KM-20L2
  GI50: 32.9 µM (inactive)
SF-539
  GI50: 20.2 µM (inactive)
HCC 2998
  GI50: 21 µM (inactive)
HCT-15
  GI50: 11.9 µM
NCI-H522
  GI50: 10.3 µM (inactive)
HCT-116
  GI50: 10.5 µM (inactive)
A549
  GI50: 7.85 µM (inactive)
ACHN
  GI50: 11.9 µM (inactive)
RXF 631
  GI50: > 100 µM (inactive)
DLD-1
  GI50: 27.2 µM (inactive)
XF498
  GI50: 14 µM (inactive)
TK-10
  GI50: 27.9 µM (inactive)
SW-620
  GI50: 46.5 µM (inactive)
Malme-3M
  GI50: 16.1 µM (inactive)
